Measured values reported in patent publication US12337005B2, “Methods of treating thrombosis” (UNIVERSITY OF IOWA RESEARCH FOUNDATION, priority 2020, dated 2025).

Columns and labels:
human platelets [1] = test: Annexin V-affinity assay, human platelets; assay type: cell-based
Procedure: (§1) Mouse and human washed platelets (1×10^8/ml) were pre-incubated with different concentrations of ML265 ([…]). Washed platelets activated with thrombin (0.5 U/ml)+convulxin (100 ng/ml) were used as a positive control. The samples were added to 1× Annexin V-binding buffer (BD Biosciences). Following this, annexin V-FITC antibody was added to each sample, gently mixed, and incubated at room temperature for 15 minutes in the dark. After incubation, 1× Annexin-binding buffer was added to each tube and analyzed by a Becton Dickinson FACSCalibur flow cytometer.

human platelets [2] = test: P-selectin expression (α-granule secretion), human platelets; assay type: cell-based; settings: stimulus-activated human platelets pretreated with ML265
Procedure: (§2) Platelets (1×10^8 cells in 100 μl) were pre-incubated for 10 min either in presence or absence of ML265 (50 and 100 μM) then stimulated by convulxin or TRAP without stirring. Following this, platelets were labeled with PE-labeled anti-CD61 antibody and FITC conjugated anti-CD62P antibody. The platelet samples were incubated for 30 min in the dark at room temperature and analyzed on the flow cytometer (FACS Calibur, Becton Dickinson). An amorphous region (gate) was drawn to differentiate the platelets from the noise and multi-platelet particles. After compensation for FITC and PE, CD61-positive 10,000 events were collected for each sample.

human platelets [3] = test: In vitro platelet aggregation, human platelet-rich plasma; assay type: cell-based; settings: convulxin, collagen, TRAP and ADP, ML265 50 and 100 μM
Procedure: (§3) Platelet rich plasma (PRP) or washed platelets (2×10^8/ml) treated with vehicle (DMSO) or ML265 (50 and 100 μM) were stirred (1200 rpm) at 37° C. for 2 min in a whole blood/optical lumi-aggregometer (Chrono-log; model 700-2) before the addition of agonists (convulxin, collagen, thrombin, PAR4, TRAP (PAR1 agonist) or adenosine diphosphate [ADP]). Aggregation was measured as percent change in light transmission, where 100% refers to transmittance through the blank sample (PRP/Buffer). Platelet dense granule secretion was determined by measuring the release of ATP using luciferin-luciferase reagent. To examine the effect of ML265 on ATP secretion, washed platelets were pretreated with vehicle (DMSO) or ML265 (50 and 100 μM) for 10 minutes before stimulation with various agonists. ATP release was performed in a lumi-aggregometer (Chrono-log; model 700-2) at 37° C.

murine platelets [4] = test: In vitro platelet aggregation, mouse platelet-rich plasma; assay type: cell-based; settings: convulxin, collagen, PAR4 and ADP, ML265 50 and 100 μM
Procedure: as §3

mouse platelets = test: Annexin V-affinity assay, mouse platelets; assay type: cell-based; settings: increasing concentrations of ML265
Procedure: as §1

murine platelets [5] = test: ATP secretion from dense granules, mouse platelets; assay type: cell-based; settings: stimulus-activated mouse platelets pretreated with ML265
Procedure: as §3

human platelets [6] = test: Thromboxane (TxB2) assay, human platelets; assay type: cell-based; settings: convulxin-stimulated human platelets pre-treated with ML265
Procedure: The TxB2 assay was done. Briefly, PRP or washed platelets (2×10^8 platelets/mL) was stimulated with convulxin or thrombin for 3 minutes utilizing an aggregometer, and the reaction was stopped by quickly freezing the sample in a dry ice-methanol bath. Before performing the TXB2 measurement assay, samples were thawed and centrifuged at 15,000 g for 3 minutes. The supernatants were diluted 1:50 with assay buffer and levels of TxB2 (a stable metabolite of TxA2) were determined in triplicate using an immunoassay kit (Abcam Thromboxane B2 enzyme-linked immunosorbent assay kit) according to the manufacturer's instructions.

human platelets [7] = test: Metabolomic analysis of human platelets; assay type: cell-based
Procedure: Human washed platelets (3×10^8 cells in 300 μl) were treated with ML265 (100 μM) or DMSO for 10 mins and stimulated by convulxin for 10 minutes. Cells were then fixed by adding 80% methanol and sent to Metabolon Inc. (Morrisville, NC, USA) for metabolomic analysis. Briefly, samples were homogenized and subjected to methanol extraction then split into aliquots for analysis by ultra-high-performance liquid chromatography/mass spectrometry (UHPLC/MS) in the positive (two methods) and negative (two methods) mode. Metabolites were then identified by automated comparison of ion features to a reference library of chemical standards followed by visual inspection for quality control as previously described (Dehaven et al., 2010). Metaboanalyst 4.0 feature PatternHunter was used for finding the metabolites showing correlation (≥0.5) with specific trends (Xia et al., 2009). The metabolites obtained after PatternHunter analysis have been represented as a heatmap. Furthermore, to understand the functional role of the changes in concentration of these metabolites, the pathway analysis was performed using Metaboanalyst 4.0. The Global Ancova and Relative-betweenness Centrality topological measures were used to identify the highly impacted pathways with KEGG human metabolic library as the reference. The False Discovery Rate corrected pathway terms with P≤0.05 were considered significant.

integrin αIIbβ3 = test: Integrin αIIbβ3 activation (JONA binding), mouse platelets; assay type: cell-based; settings: convulxin and PAR4-induced
[8] = cited from earlier work
murine platelets [9] = test: P-selectin expression (α-granule secretion), mouse platelets; assay type: cell-based; settings: stimulus-activated mouse platelets pretreated with ML265
Procedure: as §2

[10] = system: PI3 kinase-mediated Akt/GSK3β signaling; test: Western blot of Akt/GSK3β phosphorylation, mouse platelets; assay type: cell-based; settings: murine platelets, convulxin or thrombin mediated, ML265 50 and 100 μM
Procedure: Platelet proteins were separated on 4-20% SDS-PAGE (sodium dodecyl sulfate-polyacrylamide gel electrophoresis) gradient gels and electrophoretic transferred to PVDF (polyvinylidene fluoride) membrane by using Bio-Rad western blotting system. For PKM2 dimer and tetramer study 6% native gels are used. Membranes were blocked with 5% BSA or skimmed milk in 10 mM Tris-HCl, 150 mM NaCl, pH 8.0 (TBS) containing 0.05% Tween-20 for one hour at room temperature. Blots were incubated for overnight with primary antibody, followed by horseradish peroxidase-labeled secondary antibody for one hour. Blots were developed using enhanced chemiluminescence and quantified using Image J software from NIH (Bethesda, MD, USA).

[11] = ML265 100 μM, convulxin-stimulated human platelets

Cn1c2cc([S+](C)[O-])sc2c2cnn(Cc3cccc(N)c3)c(=O)c21 (stereo not shown) [ML265, 6-[(3-aminophenyl)methyl]-4,6-dihydro-4-methyl-2-(methylsulfinyl)-5H-thieno[2′,3′:4,5]pyrrolo[2,3-d]pyridazine-5-one]
concentration not inducing phosphatidyl serine surface expression (annexin V) (human platelets [1]): ≤ 300 µM
apoptosis in resting platelets (Annexin V binding) (human platelets [1]; increasing concentrations of ML265): does not induce
α-granule secretion (P-selectin exposure) (human platelets [2]): significant decrease
stimulus-dependent platelet aggregation (human platelets [3]): reduced
stimulus-dependent platelet aggregation (murine platelets [4]): reduced
apoptosis in resting platelets (Annexin V binding) (mouse platelets): does not induce
dense-granule secretion (ATP release) (murine platelets [5]): significant decrease
levels of TxB2 (stable metabolite of TxA2) (human platelets [6]): reduced
levels of arachidonic acid and 12-HETE (human platelets [7]; [11]): altered
metabolites in the glycolytic pathway, including glucose uptake and lactate production (human platelets [7]; [11]): altered
level of free fatty acids and palmitate (human platelets [7]; ML265 100 μM, human platelets): altered
palmitate (human platelets [7]; ML265 pre-treated activated human platelets compared to control): downregulated
arachidonate level (human platelets [7]; convulxin-stimulated human platelets pre-treated with ML265, vs convulxin alone): further decrease
glycerophospholipid metabolism (human platelets [7]; pre-treatment of human platelets with ML265): downregulated
activation of αIIbβ3 (JONA binding) (integrin αIIbβ3): decreased
half-life [8]: short
α-granule secretion (P-selectin exposure) (murine platelets [9]): significant decrease
Akt phosphorylation [10]: attenuated
GSK3β phosphorylation [10]: attenuated
